US20040087597A1, “Preventives and remedies for complications of diabetes” (priority 2000, published 2004)

Experiments:
osteopontin mRNA = experiment: Expression of osteopontin mRNA in the kidney and blood vessels of STZ-induced diabetic rats and normal rats (Northern blotting); type: in vivo, rat; settings: for Kidney OPNmRNA/18S / Aorta OPNmRNA/18S / Aorta % Inhibition / Kidney % Inhibition: oral 3 mg/kg once a day, 7 days; for Kidney OPNmRNA/18S / Aorta OPNmRNA/18S: mean ± standard deviation, 3 mg/kg
Protocol: The effects of pitavastatin calcium on the expression of osteopontin mRNA in the kidney and blood vessels of STZ-induced diabetic rats were investigated according to the method described below.
Namely, 35 mg per kg of body weight of STZ dissolved in the concentration of 50 mg/mL of physiological saline was injected into the tail vein of male Wistar rats (body weight: about 300 g), and the animals were orally administered 1 mL/kg of body weight of 0.5% carboxymethylcellulose solution containing the test drug (pitavastatin calcium) in the concentration of 3mg/mL with a gastric sonde. Thereafter the oral administration was performed once a day by same volume and at fixed time during the experiment. The same volume of only 0.5% carboxymethylcellulose was given by the forced oral administration for the control group. The venous blood was withdrawn from the tail vein on the second day of the experiment and the presence of 200 mg/dL or above of the blood sugar level was confirmed.
24 hours after 7 days administration, the blood was withdrawn under the ether anesthesia, and kidneys and thoracic aorta were isolated. The predetermined amount of the tissue piece in ISOGEN (Wako Pure Chemicals K.K.) was homogenized in a polytron homogenizer and the total RNA was extracted. The total RNA thus obtained was precipitated by using isopropanol. The precipitate was washed with 70% ice cold ethanol and stored at −80° C. in 70% ethanol.
Osteopontin mRNA in the total RNA obtained was detected by the conventional Northern blotting method. That is to say that the total RNA precipitated with 70% ethanol was subjected to centrifugation at 15000 rpm, the precipitate was dried at room temperature after decanting the supernatant and dissolved in a small amount of TE buffer (10 mM Tris-HCl buffer-1 mM EDTA solution). 10 μL out of the solution thus obtained was diluted with 990 μL of TE buffer solution, and the amount of RNA was calculated by measuring the absorbance at 260 nm ultraviolet light of the solution. 40% solution of deionized glyoxal (3.5 μL), 0.1 M of NaHPO4 buffer solution (2.4 μL) and dimethylsulfoxide (11.8 μL) were added to the predetermined amount (10 or 20 μg) of the total RNA (final volume: 6 μL), heated at 50° C. for 1 hour and the total RNA was denatured. 6.3 μL of 10 mM sodium phosphate buffer solution (pH: 6.8) containing 50% glycerol and 0.4% bromophenol blue was added to the solution after the solution was cooled to the room temperature, and then RNA was subjected to electrophoresis using 1.5% agarose gel. RNA was blotted from agarose to nylon membrane in a conventional fashion by using 20×saline-sodium citrate (SSC). The blotted nylon membrane was washed with 2×SSC, and RNA was fixed on the nylon membrane by heating it to 80° C. in vacuo. DNA fragment encoding osteopontin was digested from pCRIIrOP vector with Eco R1 endonuclease and purified with Probe Quant™G-50 Micro Columns (Amersham Pharmacia Biotech Co. Ltd.). DNA fragment encoding Osteopontin thus obtained was hybridized for overnight together with the nylon membrane at 65° C. with Rediprime™ II (Amersham Pharmacia Biotech Co. Ltd.) radioactive probe labeled with ^32P radioisotope. Radioisotope level of the probe bound to the nylon membrane was detected on the X-ray film and the density of the bands were analyzed according to NIH Image. […] was used as the RNA internal standard and the amount of the expression was represented with the comparative intensities of the density of the bands. Osteopontin mRNA was similarly measured in the normal rat experiment.
In Table 1, OPN mRNA/18S represents the ratio of the density of osteopontin mRNA to the density of […] based on the NIH Image Analysis and % inhibition represents that to the respective control groups. The values of OPNmRNA/18S are mean ± standard deviation.

[1] = test system: aortic smooth muscle cells of rats; experiment: Secretion of osteopontin protein into conditioned medium from aortic smooth muscle cells of rats (Western blotting); type: cell-based, rat; settings: normal glucose; pitavastatin calcium 0.03 and 0.3 μM, atorvastatin 0.3 and 3 μM; 48 hours; FIG. 1
Protocol: The effect of pitavastatin calcium and atorvastatin on the secretion of osteopontin protein into the conditioned culture medium from aortic smooth muscle cells of rats cultured under the normal glucose concentration were measured according to the method described below.
At first, aortic smooth muscle cells of rats (5 to 10 passage culture) were seeded in a 6-well culture plate and the confluent cultures were attained by culturing in low glucose (1000 mg/L) Dulbecco's modified Eagle's medium (DMEM) with 10% fetal bovine serum (FBS: BioWhittaker Co. Ltd.) under 5% CO2 atmosphere at 37° C. […]
After centrifugation, sedimented DE52 gels were washed several times with the same buffer, and 60 μL of 0.2M Tris hydrochloride buffer solution (pH 6.8) containing 5% of 2-mercaptoethanol, 4% of SDS, […], 20% of glycerol and 0.01% of bromophenol blue was added, and heat-treated for 5 minutes at 95° C. […] Chemiluminescences were detected on X-ray film using ECL™ (Amersham Pharmacia Biotech Co. Ltd.). The density of the bands were analyzed according to NIH Image. […]
The density of osteopontin protein measured with NIH Image Analysis for various concentration of pitavastatin calcium are shown in FIG. 1(a), and the density of osteopontin protein measured with NIH Image Analysis for various concentration of atorvastatin are shown in FIG. 1(b).

[2] = test system: aortic smooth muscle cells of rats; experiment: Expression of osteopontin mRNA in aortic smooth muscle cells of rats, with or without mevalonic acid (northern blotting); type: cell-based, rat; settings: FIG. 2(a)
Protocol: (§1) The effect of mevalonic acid on the suppression with pitavastatin calcium for the expression of osteopontin mRNA and the secretion of osteopontin protein in aortic smooth muscle cells of rats were measured according to the method described below.
(§2) Aortic smooth muscle cells of rats (5 to 10 passage culture) were seeded in a 6-well culture plate and the confluent cultures were attained by culturing in low glucose (1000 mg/L) DMEM with 10% FBS under 5% CO2 atmosphere at 37° C. Thereafter, the medium was replaced with the medium with pitavastatin calcium (8 μM) and/or mevalonic acid (100 μM), and the cells were cultured for another 48 hours. The medium was again replaced with 1.5 mL of FBS-free medium per well, and the cells were cultured further for 48 hours.
After the cultivation, the cells adhered to the culture plate were homogenized together with ISOGEN, RNA were extracted exactly as in Example 1, and the amount of osteopontin mRNA was analyzed by northern blotting method.
(§3) The above measurements were carried out in the three cases when pitavastatin calcium and mevalonic acid were not added, when only pitavastatin calcium was added, and when both pitavastatin calcium and mevalonic acid were added.

[3] = test system: aortic smooth muscle cells of rats; experiment: Secretion of osteopontin protein from aortic smooth muscle cells of rats, with or without mevalonic acid (western blotting); type: cell-based, rat; settings: FIG. 2(b)
Protocol: as §1, §2
At the same time, the conditioned medium was collected, osteopontin protein was absorbed on DE52, subjected to electrophoresis exactly as in Example 2, and the amount of the secreted osteopontin protein was analyzed by western blotting method.
as §3

[4] = STZ-induced diabetic rats with drug administration, versus diabetic control
[5] = healthy rats with drug administration, versus healthy control
[6] = rats with drug administration, listed as Pitavastatin calcium
[7] = pitavastatin calcium 8 μM alone, 48 hours
[8] = pitavastatin calcium 8 μM with addition of mevalonic acid 100 μM

Compound	Kidney OPNmRNA/18S (osteopontin mRNA; STZ-induced diabetic rats with drug administration, p = 0.016 vs control)	Kidney OPNmRNA/18S (osteopontin mRNA; STZ-induced diabetic rats with drug administration, p = 0.016 vs control, listed as Pitavastatin calcium)	Aorta OPNmRNA/18S (osteopontin mRNA; STZ-induced diabetic rats with drug administration, p = 0.036 vs control)	Aorta OPNmRNA/18S (osteopontin mRNA; STZ-induced diabetic rats with drug administration, p = 0.036 vs control, listed as Pitavastatin calcium)	Aorta % Inhibition (osteopontin mRNA; [4])	Kidney % Inhibition (osteopontin mRNA; [4])	Influence on the expression of osteopontin in the kidney and the aorta (osteopontin mRNA; healthy rats)	Aorta % Inhibition (osteopontin mRNA; [5])	Kidney % Inhibition (osteopontin mRNA; [5])	Aorta OPNmRNA/18S (osteopontin mRNA; rats with drug administration)	Kidney OPNmRNA/18S (osteopontin mRNA; rats with drug administration)	Aorta OPNmRNA/18S (osteopontin mRNA; [6])	Kidney OPNmRNA/18S (osteopontin mRNA; [6])	Amount of the secretion of osteopontin protein into the conditioned medium [1]	Expression of osteopontin mRNA (ratio to 18S) [2, 7]	Suppressive effect on the expression of osteopontin mRNA [2, 8]	Secretion of osteopontin protein [3, 7]	Suppressive effect on the secretion of osteopontin protein [3, 8]
(+)-bis{(3R, 5S, 6E)-7-[2-cyclopropyl4-(4-fluorophenyl)-3-quinolyl]-3,5-dihydroxy-6-heptenoic acid}-calcium [pitavastatin calcium]	1.933 ± 0.874	1.933	1.300	1.300	59.4%	40.2%	did not influence	−1.4%	−24.1%	2.433 ± 0.929	1.667 ± 0.321	2.433	1.667	inhibited with the statistical significance	suppresses	disappear	suppresses	disappear
CC(C)c1c(C(=O)Nc2ccccc2)c(-c2ccccc2)c(-c2ccc(F)cc2)n1CC[C@@H](O)C[C@@H](O)CC(=O)O [atorvastatin]	–	–	–	–	–	–	–	–	–	–	–	–	–	inhibited with the statistical significance	–	–	–	–
